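A five-concentration, 48-hour dose response in 96-well plates underlies each endpoint, interpolated linearly between surrounding concentrations. TGI: concentration producing complete growth inhibition.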
Columns and labels:
Experiment in all cases: NCI tumour cell line growth inhibition, 48 h
HOP-18 NSCLC = test system: HOP-18 NSCLC
SK-MEL-2 melanoma = test system: SK-MEL-2 melanoma
DLD-1 colon = test system: DLD-1 colon
OVCAR-4 ovarian = test system: OVCAR-4 ovarian
SW-620 colon = test system: SW-620 colon
ACHN renal = test system: ACHN renal
HCC-2998 colon = test system: HCC-2998 colon
SNB-78 CNS = test system: SNB-78 CNS
NCI-H226 lung = test system: NCI-H226 lung
SF-539 CNS = test system: SF-539 CNS
M19-MEL melanoma = test system: M19-MEL melanoma
COLO 205 colon = test system: COLO 205 colon

Row | SMILES | TGI (HOP-18 NSCLC) [µM] | TGI (SK-MEL-2 melanoma) [µM] | TGI (DLD-1 colon) [µM] | TGI (OVCAR-4 ovarian) [µM] | TGI (SW-620 colon) [µM] | TGI (ACHN renal) [µM] | TGI (HCC-2998 colon) [µM] | TGI (SNB-78 CNS) [µM] | TGI (NCI-H226 lung) [µM] | TGI (SF-539 CNS) [µM] | TGI (M19-MEL melanoma) [µM] | TGI (COLO 205 colon) [µM]
1 | CN1NC(c2ccccc2)=C(C#N)C(=O)CC1c1ccc(Br)cc1 (configuration not stated) | > 100 | 70 | > 100 | > 100 | > 100 | > 100 | > 100 | > 100 | 4.24 |  |  | 
2 | CC[n+]1c(/C=C/c2ccc(N(CCCl)CCCl)cc2)ccc2cc(I)ccc21 | 8.54 | 1.39 | 6.14 | 2.29 | 6.96 | 9.37 | 2.58 | 36 | 5.63 | 2.4 |  | 
3 | OC12c3ccccc3C1CCCCCC21OCCCO1 (configuration not stated) | > 100 | > 100 | > 100 | > 100 | > 100 | > 100 |  | > 100 | > 100 | > 100 | > 100 | > 100
4 | C=CCn1c(=N)/c(=C(\N)O)s/c1=C1/SC(=S)N(c2ccc(C)cc2)C1=O | > 100 | > 100 |  |  | > 100 | > 100 |  |  | > 100 | > 100 | > 100 | > 100
5 | O=C(c1ccco1)N(C(=S)N1CCN(c2ccccn2)CC1)c1ccccc1 | > 100 | > 100 | > 100 | > 100 | > 100 | > 100 |  | > 100 | > 100 | > 100 | > 100 | > 100
6 | O=C(O)c1ccc(Nc2nc3nn(Cc4ccccc4)cc3c(=O)s2)cc1 | > 100 | > 100 | > 100 |  | > 100 | > 100 | > 100 | > 100 |  | > 100 | > 100 | > 100
7 | CCCCCCCCCC(=O)NC(Cc1ccc(O)cc1)C(=O)NCCCNCCCCNCCCNC(=O)[C@@H](N)CCCN=C(N)N (some centres not stated) |  |  |  |  | > 100 | 67 | > 100 |  | > 100 | 26.8 | > 100 | 34.5
8 | C/C(O)=C(\C=NC(=S)c1ccncc1)C(=O)Nc1ccccc1C |  | > 100 |  | > 100 | > 100 | > 100 | > 100 |  | > 100 | > 100 |  | > 100
9 | OC12CCC3(O)c4ccccc4C3C1c1ccccc12 (configuration not stated) | > 100 | > 100 |  | > 100 | > 100 | > 100 |  | > 100 | > 100 |  | > 100 | > 100
10 | CCC(=O)Nc1ccc(NCC(=O)Nc2ccc(OC)cc2)cc1 |  | 38.5 |  | 35.2 | > 100 | > 100 | 35.5 |  | 37.7 | 38.6 |  | > 100
11 | N#Cc1c(-c2ccccc2)cc(Nc2ccc(Cl)cc2)n2c1nc1ccccc12 |  | > 83.6 |  | > 100 | > 100 | > 100 | > 100 |  | > 100 | > 49.5 |  | 2.8
12 | Nc1c2cc3ccc2nc2ccc(cc12)OCCOCCOCCOCCOCCOCCO3 |  | > 10 |  | > 10 | > 10 | > 10 | > 10 |  | > 10 | > 10 |  | > 10
13 | C=CCn1c(-c2ccc(Cl)cc2)csc1=Nc1ccccc1OC |  | > 100 |  | > 100 | > 100 | > 100 | > 100 |  | > 100 | > 100 |  | > 100
14 | COCOc1cc(OC)ccc1C/C(=N/O)C(=O)OC |  | > 100 |  | > 100 | > 100 | > 100 | > 100 |  | > 100 | > 100 |  | > 100
15 | Cc1cn(C2OC(CO)C(O)C2F)c(=O)[nH]c1=O (configuration not stated) |  | > 100 |  | > 100 | > 100 | > 100 | > 100 |  | > 100 | > 100 |  | > 100
16 | COc1ccc(/C(Cl)=C(\C=O)c2ccc(Cl)cc2)cc1OC | > 100 | 57.2 | > 100 | 73.6 | 15.4 | 13.1 | 76.2 | > 100 | 36.6 |  | 48.3 | 13.2

Row | SMILES | TGI (HOP-18 NSCLC) [µM] | TGI (SK-MEL-2 melanoma) [µM] | TGI (DLD-1 colon) [µM] | TGI (OVCAR-4 ovarian) [µM] | TGI (SW-620 colon) [µM] | TGI (ACHN renal) [µM] | TGI (HCC-2998 colon) [µM] | TGI (SNB-78 CNS) [µM] | TGI (NCI-H226 lung) [µM] | TGI (SF-539 CNS) [µM] | TGI (M19-MEL melanoma) [µM] | TGI (COLO 205 colon) [µM]
17 | CCOc1cc(-c2nc3cc(F)ccc3s2)ccc1O |  | 31.5 |  | 43.2 | 40.7 | 29.9 | 41.6 |  | 34.2 | 34.2 |  | 34.6
18 | COc1ccc(C2C3=C(COC3=O)OC(C)(C)Oc3cc4c(cc32)OCO4)cc1OC (configuration not stated) |  | > 100 |  | > 100 | > 100 | > 100 | > 100 |  | > 100 | 72.6 |  | 48.1
19 | C=CC[C@]1(C2=NC(C)(C)CO2)c2ccccc2-c2ccccc2[C@H]1C(C)=O |  | 15.4 |  | > 69 | 34.4 | > 45.9 | 20.7 |  | 30 | 25.1 |  | 15
20 | CCN(CC)CCN1C(=O)C(=O)N(c2cccc3ccccc23)C1=O |  | > 10 |  | > 10 | > 10 | > 10 | > 10 |  | > 10 | > 10 |  | > 10
21 | O=C1NC(=Nc2ccccc2Cl)N/C1=C\c1ccc(Cl)cc1Cl |  | 58.4 |  | > 100 | > 100 | > 100 | > 100 |  | 57.6 | > 100 |  | > 100
22 | O=C(C1OC1c1cccc([N+](=O)[O-])c1)C12CC3CC(CC(C3)C1)C2 (configuration not stated) |  | 28.6 |  | 15.4 | 8.44 | 23 | 14.5 |  | 25.9 | 22.6 |  | 23.4
23 | C[n+]1cn(-c2nc3ccccc3nc2[N-]S(=O)(=O)c2ccccc2)c2ccccc21 |  | > 100 |  | > 100 | > 100 | > 100 | > 100 |  | > 100 | > 100 |  | > 100
24 | NCCNC(=O)CN(CC(=O)O)C1CCCCC1N(CC(=O)O)CC(=O)O (configuration not stated) |  | > 100 |  | > 100 | > 100 | > 100 | > 100 |  | > 100 | > 100 |  | > 100
25 | Cc1ccc(SCC(OCn2cnc3c(Cl)nc(N)nc32)[C@H](C)F)cc1 (some centres not stated) |  | > 100 |  | > 100 | > 100 | > 100 | > 100 |  | > 100 | > 100 |  | > 100
26 | COc1cc(OC)c(C2(c3c(OC(C)C)c(=O)c3=O)SCCCS2)cc1OC |  | > 100 |  | > 100 | > 100 | > 100 | > 100 |  | > 100 | > 100 |  | > 100
27 | O=[N+]([O-])C(C(Cl)=C(Cl)Cl)=C(n1cncn1)n1cncn1 |  | > 100 |  | 57 | 43.1 | 37.5 | 98.1 |  | > 100 | 41.2 |  | 26.7
28 | O=C1NC(=Nc2ccccc2)C(=Nc2ccccc2)N1c1ccccc1 |  | 29.3 |  | 33.1 | 30 | 30.6 | 30.7 |  | 32 | 31.5 |  | 28
29 | COC(=O)CNC(=O)CCC(C)[C@H]1CCC2C3C(C[C@H](OC(C)=O)[C@@]21C)[C@@]1(C)CCC2(C[C@H]1C[C@H]3OC(C)=O)OOC1(CCCCC1)OO2 (some centres not stated) |  | 6.49 |  | 3.66 | 5.46 | 3.85 | 5.98 |  | 4.65 | 3.75 |  | 3.89
30 | O=c1[nH]nc(-c2ccc(F)cc2)cc1-c1ccccc1 |  | > 100 |  | > 100 | > 100 | > 100 | > 100 |  | > 100 | > 100 |  | > 100
31 | COc1ccc2c(c1OC)C(=O)O[C@@H]2[C@H]1c2c(cc3c(c2OC)OCO3)CCN1C |  | > 100 |  | > 100 | > 100 | > 100 | > 100 |  | > 100 | > 100 |  | > 100

— PubChem BioAssay (NCI)
